From patent US20230014445A1, “ALLOSTERIC CHROMENONE INHIBITORS OF PHOSPHOINOSITIDE 3-KINASE (PI3K) FOR THE TREATMENT OF DISEASE” (Petra Pharma Corporation, priority 2021, published 2023)

Columns and labels:
[1] = target: PI3K-α (PIK3CA) in MDA-MB-453 cells (Homo sapiens, UniProt P42336); experiment: PI3K-Alpha Kinase (PIK3CA) activity in vitro cell based assay (AlphaLisa SureFire); conditions: 0% FBS, 3 hours treatment, read-out: PI3K-α (PIK3CA) in vitro cell based assay IC50
Method in brief: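 Serum-free MDA-MB-453 cells with 1 μg/mL insulin treated 3 h with a 10-point compound series in 0.3% DMSO; lysates analysed by AlphaLisa SureFire. Relative IC50 from 4-parameter fit of % inhibition versus DMSO (max) and 1 μM GDC-0032 (min) controls, duplicates.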

[2] = target: T1, human full length PIK3KA Wild-type (p110α/p85α complex) (Homo sapiens, UniProt P42336); experiment: PI3K-Alpha Kinase (PIK3CA) biochemical activity, wild-type (ADP-Glo); conditions: 20 uM ATP
T1 construct: Recombinant, catalytically active human full length PIK3KA Wild-type and H1047R mutant were purchased; 6xHis (N); purchased EMD Millipore Sigma 14-602M
Method in brief: (§1)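 ADP formation, measured by ADP-Glo luminescence after reaction to about 10% ATP conversion at 27° C., gives 10-point 4-parameter IC50 curves normalized to no-enzyme and DMSO controls. Lipid substrate was PIP2diC8 or Soy PI at 50 uM, with 20 uM ATP. WT or H1047R p110α/p85α complex (1-5 nM) was preincubated 1 h with compound.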

[3] = target: T2, human full length PIK3KA H1047R mutant (p110α/p85α complex) (Homo sapiens, UniProt P42336, H1047R); experiment: PI3K-Alpha Kinase (PIK3CA) biochemical activity, H1047R mutant (ADP-Glo); conditions: 20 uM ATP
T2 construct: Recombinant, catalytically active human full length PIK3KA Wild-type and H1047R mutant were purchased; 6xHis (N); purchased EMD Millipore Sigma 14-792M
Method in brief: as §1

T2 sequence (P42336 whole entry H1047R): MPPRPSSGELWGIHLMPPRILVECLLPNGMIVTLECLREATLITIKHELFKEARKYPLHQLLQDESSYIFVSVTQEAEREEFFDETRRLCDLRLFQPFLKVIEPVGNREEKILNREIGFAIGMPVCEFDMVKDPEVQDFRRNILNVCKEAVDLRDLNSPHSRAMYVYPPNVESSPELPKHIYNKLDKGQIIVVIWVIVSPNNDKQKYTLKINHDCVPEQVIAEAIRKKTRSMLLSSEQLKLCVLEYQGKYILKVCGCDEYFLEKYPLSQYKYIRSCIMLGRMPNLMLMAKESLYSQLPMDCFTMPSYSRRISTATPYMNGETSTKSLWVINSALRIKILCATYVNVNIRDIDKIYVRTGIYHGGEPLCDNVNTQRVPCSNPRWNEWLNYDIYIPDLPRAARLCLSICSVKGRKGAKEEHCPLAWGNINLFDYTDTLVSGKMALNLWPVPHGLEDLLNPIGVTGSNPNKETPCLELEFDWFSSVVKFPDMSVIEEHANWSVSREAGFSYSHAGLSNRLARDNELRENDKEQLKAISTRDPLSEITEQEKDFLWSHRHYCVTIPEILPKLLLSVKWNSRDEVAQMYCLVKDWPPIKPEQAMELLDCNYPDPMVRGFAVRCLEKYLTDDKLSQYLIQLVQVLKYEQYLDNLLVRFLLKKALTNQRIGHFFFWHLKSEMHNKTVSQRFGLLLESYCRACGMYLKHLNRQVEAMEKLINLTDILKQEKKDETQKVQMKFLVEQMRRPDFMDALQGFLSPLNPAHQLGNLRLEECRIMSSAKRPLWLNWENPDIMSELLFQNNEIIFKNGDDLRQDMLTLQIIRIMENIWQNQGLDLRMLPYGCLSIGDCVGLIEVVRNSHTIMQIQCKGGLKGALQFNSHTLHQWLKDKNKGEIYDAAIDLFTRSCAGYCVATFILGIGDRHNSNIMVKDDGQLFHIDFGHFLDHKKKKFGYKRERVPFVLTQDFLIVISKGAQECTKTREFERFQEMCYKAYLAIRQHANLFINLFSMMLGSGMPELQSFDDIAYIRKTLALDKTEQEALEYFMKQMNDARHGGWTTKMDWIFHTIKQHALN
T2 sequence (P27986 whole entry partner): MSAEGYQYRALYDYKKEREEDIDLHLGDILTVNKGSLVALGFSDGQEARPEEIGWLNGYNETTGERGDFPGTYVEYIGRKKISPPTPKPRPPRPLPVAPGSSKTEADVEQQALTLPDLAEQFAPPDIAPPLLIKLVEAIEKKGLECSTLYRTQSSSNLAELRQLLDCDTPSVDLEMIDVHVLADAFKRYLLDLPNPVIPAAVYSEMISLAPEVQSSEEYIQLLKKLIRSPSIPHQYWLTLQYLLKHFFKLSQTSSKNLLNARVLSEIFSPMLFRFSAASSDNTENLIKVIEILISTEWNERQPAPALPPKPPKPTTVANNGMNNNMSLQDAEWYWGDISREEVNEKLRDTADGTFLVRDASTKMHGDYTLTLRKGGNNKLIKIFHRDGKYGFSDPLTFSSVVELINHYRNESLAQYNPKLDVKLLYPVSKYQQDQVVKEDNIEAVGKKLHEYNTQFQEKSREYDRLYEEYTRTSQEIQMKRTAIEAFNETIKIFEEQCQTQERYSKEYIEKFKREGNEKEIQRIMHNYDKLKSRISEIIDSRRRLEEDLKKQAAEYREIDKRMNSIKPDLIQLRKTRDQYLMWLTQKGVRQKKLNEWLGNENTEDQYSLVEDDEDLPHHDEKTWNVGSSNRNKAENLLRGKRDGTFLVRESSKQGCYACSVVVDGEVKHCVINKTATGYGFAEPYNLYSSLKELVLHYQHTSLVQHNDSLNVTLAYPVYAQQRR
Sequence of PI3K-α (PIK3CA) in MDA-MB-453 cells (P42336 whole entry): as the sequence (P42336 whole entry H1047R) above, with R1047H counted along it
Sequence of PI3K-α (PIK3CA) in MDA-MB-453 cells (P27986 2-724, further chain): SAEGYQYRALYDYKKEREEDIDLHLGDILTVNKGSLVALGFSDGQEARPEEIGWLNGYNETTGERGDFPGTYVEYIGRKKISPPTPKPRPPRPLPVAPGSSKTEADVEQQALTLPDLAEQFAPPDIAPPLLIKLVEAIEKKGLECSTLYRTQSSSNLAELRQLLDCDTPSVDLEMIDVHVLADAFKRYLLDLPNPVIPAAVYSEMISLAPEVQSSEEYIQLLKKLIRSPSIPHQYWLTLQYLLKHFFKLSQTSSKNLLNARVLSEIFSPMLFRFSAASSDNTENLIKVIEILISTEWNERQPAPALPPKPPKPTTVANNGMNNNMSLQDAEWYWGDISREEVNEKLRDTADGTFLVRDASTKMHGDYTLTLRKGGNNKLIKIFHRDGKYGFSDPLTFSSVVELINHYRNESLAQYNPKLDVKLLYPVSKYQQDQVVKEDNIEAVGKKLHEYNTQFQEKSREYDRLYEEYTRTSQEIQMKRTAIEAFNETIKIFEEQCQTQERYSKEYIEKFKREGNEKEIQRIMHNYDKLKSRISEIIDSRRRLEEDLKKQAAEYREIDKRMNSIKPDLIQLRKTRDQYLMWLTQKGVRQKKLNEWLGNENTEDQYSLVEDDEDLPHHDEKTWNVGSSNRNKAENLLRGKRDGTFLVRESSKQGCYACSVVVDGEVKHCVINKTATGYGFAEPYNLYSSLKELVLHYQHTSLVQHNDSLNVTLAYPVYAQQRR

| IC50 [1] [nM] | IC50 ([2]; Soy PI lipid substrate) [nM] | IC50 ([3]; Soy PI lipid substrate) [nM] | IC50 ([2]; PIP2diC8 lipid substrate) [nM] | IC50 ([3]; PIP2diC8 lipid substrate) [nM] | Compound |
| --- | --- | --- | --- | --- | --- |
| 50 to 100 | > 10000 | 1000 to 5000 | – | – | Cc1cc(C(C)Nc2cccnc2C(=O)O)c2oc(-c3cncc(F)c3)c(C)c(=O)c2c1 (single isomer, unassigned; isomer 1) [Example 131, 3-[1-[2-(5-Fluoro-3-pyridyl)-3,6-dimethyl-4-oxo-chromen-8-yl]ethylamino]pyridine-2-carboxylic acid, Isomer 1] |
| < 50 | 500 to 1000 | < 500 | – | – | Cc1cc(C(C)Nc2ccc(Cl)cc2C(=O)O)c2oc(-c3cccnc3)c(C)c(=O)c2c1 (single isomer, unassigned; isomer 1) [Example 132, 5-Chloro-2-[1-[3,6-dimethyl-4-oxo-2-(3-pyridyl)chromen-8-yl]ethylamino]benzoic acid, Isomer 1] |
| 50 to 100 | 1000 to 5000 | < 500 | – | – | COc1cccc(-c2cc(=O)c3cc(C)cc(C(C)Nc4ccccc4C(=O)O)c3o2)n1 (single isomer, unassigned; isomer 2) [Example 22, 2-[1-[2-(6-Methoxy-2-pyridyl)-6-methyl-4-oxo-chromen-8-yl]ethylamino]benzoic acid, Isomer 2] |
| 100 to 500 | 5000 to 10000 | < 500 | – | – | Cc1cc(C(C)Nc2ccccc2C(=O)O)c2oc(-c3nccnc3C)cc(=O)c2c1 (single isomer, unassigned; isomer 2) [Example 29, 2-[1-[6-Methyl-2-(3-methylpyrazin-2-yl)-4-oxo-chromen-8-yl]ethylamino]benzoic acid, Isomer 2] |
| > 500 | – | – | > 10000 | > 10000 | Cc1cc(C(C)Nc2ccccc2C(=O)O)c2oc(-c3cnc(C)nc3)cc(=O)c2c1 (single isomer, unassigned; isomer 2) [Example 33, 2-[1-[6-Methyl-2-(2-methylpyrimidin-5-yl)-4-oxo-chromen-8-yl]ethylamino]benzoic acid, Isomer 2] |
| < 50 | 5000 to 10000 | < 500 | – | – | Cc1cc(C(C)Nc2ccccc2C(=O)O)c2oc(-c3ccc(F)nc3)cc(=O)c2c1 (single isomer, unassigned; isomer 2) [Example 36, 2-[1-[2-(6-Fluoro-3-pyridyl)-6-methyl-4-oxo-chromen-8-yl]ethylamino]benzoic acid, Isomer 2] |
| 50 to 100 | 5000 to 10000 | < 500 | – | – | Cc1cc(C(C)Nc2ccccc2C(=O)O)c2oc(-c3cnc(OC(C)C)nc3)cc(=O)c2c1 (single isomer, unassigned; isomer 2) [Example 42, 2-[1-[2-(2-Isopropoxypyrimidin-5-yl)-6-methyl-4-oxo-chromen-8-yl]ethylamino]benzoic acid, Isomer 2] |
| 100 to 500 | 1000 to 5000 | < 500 | – | – | COc1cccc(-c2nnc(-c3cc(=O)c4cc(C)cc(C(C)Nc5ccccc5C(=O)O)c4o3)o2)c1 (single isomer, unassigned; isomer 2) [Example 84, 2-[1-[2-[5-(3-Methoxyphenyl)-1,3,4-oxadiazol-2-yl]-6-methyl-4-oxo-chromen-8-yl]ethylamino]benzoic acid, Isomer 2] |
| > 500 | 1000 to 5000 | 1000 to 5000 | – | – | Cc1cc(C(C)Nc2cccc(F)c2C(=O)O)c2oc(-c3ccccn3)cc(=O)c2c1 (single isomer, unassigned; isomer 2) [Example 111, 2-Fluoro-6-[1-[6-methyl-4-oxo-2-(2-pyridyl)chromen-8-yl]ethylamino]benzoic acid, Isomer 2] |
| 100 to 500 | 1000 to 5000 | < 500 | – | – | Cc1cc(C(C)Nc2cccc(F)c2C(=O)O)c2oc(-c3cnn(-c4ccc(C#N)cc4)c3)cc(=O)c2c1 (single isomer, unassigned; isomer 2) [Example 113, 2-[1-2-[1-(4-Cyanophenyl)pyrazol-4-yl]-6-methyl-4-oxo-chromen-8-yl]ethylamino]-6-fluoro-benzoic acid, Isomer 2] |
